Measured values taken from US20160041146A1 (priority 2014, published 2016).
Like-named read-outs stand apart in the source and are kept apart here.

Format: in vivo, human
Details: for Urine concentration (median): 50 subjects; for μA, population mean of ln(PMET/SMET), ratio of primary (parent) to secondary metabolite concentration in urine: large batch of historical UDT patient data (for quetiapine: model A), the σA is the standard deviation
Text: Determining the amount of a drug in fluid of the subject may be accomplished by use of any method known to those skilled in the art. Non-limiting examples for determining the amount of a drug in fluid of a subject include fluorescence polarization immunoassay (“FPIA,” Abbott Diagnostics), mass spectrometry (MS), gas chromatography-mass spectrometry (GC-MS-MS), liquid chromatography-mass spectrometry (LC-MS-MS), and the like. In one embodiment, LC-MS-MS methods known to those skilled in the art are used to determine a raw level, amount or concentration of a drug in urine of the subject. In one embodiment, a raw level or concentration of a drug in urine of a subject is measured and reported as a ratio, percent, or in relationship to the amount of fluid. The amount of fluid may be expressed as a unit volume, for example, in L, mL, μL, pL, ounce, etc. In one embodiment, the raw amount of a drug in urine of a subject may be expressed as an absolute level or value, for example, in g, mg, μg, ng, pg, etc.
In an embodiment, the raw primary metabolite and secondary metabolite concentrations measured in urine of the subject are transformed and normalized (hereafter “Equation 3”): […]
where ln is the natural log, PMET is the concentration of the primary metabolite also referred to as the parent drug in […]; and SMET is the concentration of the secondary metabolite in […]. The value is then transformed into its corresponding value on the standard normal (e.g., Gaussian) distribution using (hereafter “Equation 4): […]
where NORMSTD(RATIO) is the standardized normal value (also referred to herein as the Z-score) and μA and σA are the mean and the standard deviation respectively of the population used to construct the model described in Equation 3. The resulting mean and standard deviation of the standardized normal distribution, NORMSTD(RATIO), are “0” and “1” respectively.
The Data Sets used to establish the ratio models were cleaned as detailed below and the resulting information used only considered patients who tested positive for the primary and secondary metabolite of interest and were prescribed the drug of interest. Furthermore, to ensure integrity of the data only patients with qualifying sample validity test information (sample pH and sample creatinine level), as described in detail in other embodiments were included in the model. […] Consequently, all patients were included in the model regardless of whether their illicit drug test was positive or negative.
Once the patient(s) meet acceptable Sample Validity test results and non-zero values, expected values based on the model can be calculated using the models described below (Equation 3 and Equation 4 detailed in other embodiments).

[1] = patient validity data set for Quetiapine models, average quetiapine dosage 299 mg
[2] = patient validity data set for Alprazolam model, average alprazolam dosage 2.26 mg
[3] = Oxycodone model population, approximately 48,800 patient results over one year, average daily dosage 36 mg
[4] = patient validity data set for Oxycodone model, average oxycodone dosage 24 mg

For `OCCOCCN1CCN(C2=Nc3ccc(O)cc3Sc3ccccc32)CC1` [7-hydroxyquetiapine], the “median urine drug concentration” value (Alprazolam model population, approximately 256,000 patient results over nine years, average daily dosage 3 mg) was 329 ng/mL, the “median urine drug concentration” value (Quetiapine model A population, approximately 5,455 patient results collected over three years, average daily dosage 229 mg) was 95 ng/mL and the “median urine drug concentration” value (Quetiapine model B population, approximately 236 patient results, six month clinical trial, average daily dosage 310 mg) was 55 ng/mL. The “Urine concentration (median)” value [1] was 62 ng/mL.

With `OCc1nnc2n1-c1ccc(Cl)cc1C(c1ccccc1)=NC2` [alpha-hydroxyalprazolam] the “Urine concentration (median)” value [2] was 265 ng/mL.

For `Cc1nnc2n1-c1ccc(Cl)cc1C(c1ccccc1)=NC2` [alprazolam], the “μA, population mean of ln(PMET/SMET), ratio of primary (parent) to secondary metabolite concentration in urine” value was −0.463 and the “Urine concentration (median)” value [2] was 118 ng/mL.

In the case of `COc1ccc2c3c1O[C@H]1C(=O)CC[C@H]4[C@@H](C2)N(C)CC[C@]314` [hydrocodone], the “median urine drug concentration” value (Hydrocodone model population, approximately 84,000 patient results over one year, average daily dosage 32 mg) is reported as 1395 ng/mL, the “μA, population mean of ln(PMET/SMET), ratio of primary (parent) to secondary metabolite concentration in urine” value is reported as 0.996 and the “Urine concentration (median)” value (patient validity data set for Hydrocodone model, average hydrocodone dosage 26 mg) is reported as 1428 ng/mL.

For `COc1ccc2c3c1O[C@H]1C(=O)CC[C@@]4(O)[C@@H](C2)N(C)CC[C@]314` [oxycodone], the “median urine drug concentration” value [3] was 1421 ng/mL, the “μA, population mean of ln(PMET/SMET), ratio of primary (parent) to secondary metabolite concentration in urine” value was −0.083 and the “Urine concentration (median)” value [4] was 1509 ng/mL.

In the case of `CN1CC[C@]23c4c5ccc(O)c4O[C@H]2C(=O)CC[C@@]3(O)[C@H]1C5` [oxymorphone], the “median urine drug concentration” value [3] is reported as 1248 ng/mL and the “Urine concentration (median)” value [4] is reported as 1579 ng/mL.

With `OCCOCCN1CCN(C2=Nc3ccccc3Sc3ccccc32)CC1` [quetiapine] the “Urine concentration (median)” value [1] was 69 ng/mL.
